Two compounds from ChEMBL document CHEMBL4715863, “Chemistry and Biology of Natural Azoxy Compounds” (J Nat Prod, 2020) can be followed below.

pIC50: −log10 of the molar value. In brackets after ≈: the same amount, converted by molar mass.

What is called MIC is the lowest concentration that inhibits growth of the organism. A lower MIC goes with greater potency. For orientation: pIC50 means the IC50 on a negative log10 scale, so that one unit is a factor of ten. Low readings indicate a large IC50, high ones a small IC50.

For experiment [1], the system named is Escherichia coli. The experiment is described as follows: Antibacterial activity against Escherichia coli BE1121 by paper disc-agar diffusion method. The format is functional.
Experiment [2] has as its system KB. The experiment is described as follows: Cytotoxicity against human KB cells. In kind it is functional, cell-based.

`C=C(/N=[N+](\[O-])CC(C)C)C(=O)O` returned an MIC in experiment [1] of 0.078 µg/mL (≈ 0.453 µM).

As to `[O-]/[N+](CCCCCCCCCC/C=C\CCc1cccnc1)=N\CCCCCCCCCC/C=C\CCc1cccnc1`, in experiment [2], the pIC50 is 5.77.
